Laboratory results taken from patent US12264173B2 (GILEAD SCIENCES, INC., priority 2020, dated 2025).

What was measured:
RSV RNP complexes = target: T1, RSV RNP complexes (Human respiratory syncytial virus A, UniProt P28887); test: RSV RNP assay (transcription); assay type: biochemical, RSV A2
T1 construct: The supernatant (S3) fraction, containing the enriched RSV RNP complexes, was collected; endogenous in cells; host or cells: HEp-2 cells infected with RSV A2; detergent-extracted S3 fraction
Protocol: RSV ribonucleoprotein (RNP) complexes were prepared from a method modified from Mason et al. (1). HEp-2 cells were plated at a density of 7.1×10^4 cells/cm^2 in MEM+10% fetal bovine serum (FBS) and allowed to attach overnight at 37° C. (5% CO2). Following attachment, the cells were infected with RSV A2 (MOI=5) in 35 mL MEM+2% FBS. At 20 hours post-infection, the media was replaced with MEM+2% FBS supplemented with 2 μg/mL actinomycin D and returned to 37° C. for one hour. The cells were then washed once with PBS and treated with 35 mL of PBS+250 μg/mL lyso-lecithin for one minute, after which all liquid was aspirated. […] The supernatant (S3) fraction, containing the enriched RSV RNP complexes, was collected and the protein concentration determined by UV absorbance at 280 nm. […]
Transcription reactions contained 25 μg of crude RSV RNP complexes in 30 μL of reaction buffer [50 mM TRIS-acetate (pH 8.0), 120 mM potassium acetate, 5% glycerol, 4.5 mM MgCl2, 3 mM DTT, 2 mM ethyleneglycol-bis(2-aminoethylether)-tetraacetic acid (EGTA), 50 μg/mL BSA, 2.5 U RNasin (Promega), ATP, GTP, UTP, CTP and 1.5 uCi [α-32P] […] The radiolabled nucleotide used in the transcription assay was selected to match the nucleotide analog being evaluated for inhibition of RSV RNP transcription. […]

DENV2 NS5 = DENV2 NS5 (Dengue virus type 2, UniProt P14340); test: DENV Pol IC50 (DENV2-NS5 polymerase assay); assay type: biochemical; details: nucleotide triphosphate
Protocol: A 244 nucleotide secondary structureless heteropolymeric RNA (sshRNA) with sequence 5′-(UCAG)20(UCCAAG)14(UCAG)20-3′ (SEQ ID NO: 1) is used as the template with 5′-CUG-3′ primer in the DENV2-NS5 polymerase assay. Six two-fold dilutions of compounds starting from 200 nM and no inhibitor control are plated in 96-well plates. 100 nM DENV2 NS5 is preincubated for 5 minutes at room temperature in a reaction mixture containing 40 mM Tris-HCl (pH 7.5), 10 mM NaCl, 3 mM DTT, 0.2 unit/μL RNasin Plus RNase Inhibitor, 200 ng/μL sshRNA, 20 μM CUG and 2 mM MgCl2. Enzyme mix is added to compound dilutions and reactions initiated by the addition of a mixture containing 20 μM of three natural NTP plus 2 μM of analog:base matched competing natural NTP containing 1:100 α-33P-NTP. After 90 minutes at 30° C., 5 μL of the reaction mixtures are spotted on DE81 anion exchange paper. Filter papers are washed three times with Na2HPO4 (125 mM, pH 9) for 5 minutes, rinsed with water and ethanol, then air-dried and exposed to phosphorimager. Synthesized RNA is quantified using Typhoon Trio Imager and Image Quant TL Software and reaction rates are calculated by linear regression using GraphPad Prism 5.0. IC50 values are calculated in Prism by non-linear regression analysis using the dose-response (variable slope) equation (four-parameter logistic equation): Y=Bottom+(Top-Bottom)/(1+10^((Log IC50−X)*HillSlope)).

POLRMT [1] = target: T2, POLRMT (Homo sapiens, UniProt O00411); test: Single nucleotide incorporation by human mitochondrial RNA polymerase (POLRMT); assay type: biochemical; details: nucleotide triphosphate
Protocol: A mixture of MTCN buffer (50 mM MES, 25 mM Tris-HCl, 25 mM CAPS, and 50 mM NaCl, pH 7.5), 200 nM 5′^32 P-R12/D18, 10 mM MgCl2, 1 mM DTT, and 376 nM POLRMT was preincubated at 30° C. for 1 min. The reaction was started by addition of 500 μM (final) natural NTP or NTP analogs. At selected time points, the reaction mixture was removed and quenched with gel loading buffer containing 100 mM EDTA, 80% formamide, and bromophenol blue, and heated at 65° C. for 5 min. The samples were run on a 20% polyacrylamide gel (8 M urea), and the product formation was quantified using Typhoon Trio Imager and Image Quant TL Software (GE Healthcare, Piscataway, NJ). The rate of single nucleotide incorporation by mt RNA pol was calculated by fitting the product formation using the single exponential equation: [1R13]=A(1−e^−kt), where [1R13] represents the amount (in nM) of the elongated product formed, t represents the reaction time, k represents the observed rate, and A represents the amplitude of the exponential.

POLRMT [2] = target: T2, POLRMT; test: Inhibition of human mitochondrial RNA polymerase (POLRMT); assay type: biochemical; details: nucleotide triphosphate
Protocol: All reaction mixtures contained 50 mM Tris-HCl buffer (pH 8.0), 0.2 mg/ml BSA, 2 mM DTT, 0.05 mg/ml activated fish sperm DNA, 10 mM MgCl2, 1.3 μCi [α-^33P]dTTP (3,000 Ci/mmol), and 2 μMeach of dATP, dGTP, and TTP. The optimal enzyme concentrations were chosen to be in the linear range of enzyme concentration ([E]) versus activity, and the reaction time was selected to ensure that 10% of the substrate was consumed. All reactions were run at 37° C. […] The reactions were heated to 32° C. and initiated by adding 2.5 μM each of the four natural NTPs and 1.5 μCi of [^33P]GTP. After incubation for 30 min at 32° C., the reactions were spotted on DE81 paper before being processed for quantification.

T2 sequence (O00411 42-1230): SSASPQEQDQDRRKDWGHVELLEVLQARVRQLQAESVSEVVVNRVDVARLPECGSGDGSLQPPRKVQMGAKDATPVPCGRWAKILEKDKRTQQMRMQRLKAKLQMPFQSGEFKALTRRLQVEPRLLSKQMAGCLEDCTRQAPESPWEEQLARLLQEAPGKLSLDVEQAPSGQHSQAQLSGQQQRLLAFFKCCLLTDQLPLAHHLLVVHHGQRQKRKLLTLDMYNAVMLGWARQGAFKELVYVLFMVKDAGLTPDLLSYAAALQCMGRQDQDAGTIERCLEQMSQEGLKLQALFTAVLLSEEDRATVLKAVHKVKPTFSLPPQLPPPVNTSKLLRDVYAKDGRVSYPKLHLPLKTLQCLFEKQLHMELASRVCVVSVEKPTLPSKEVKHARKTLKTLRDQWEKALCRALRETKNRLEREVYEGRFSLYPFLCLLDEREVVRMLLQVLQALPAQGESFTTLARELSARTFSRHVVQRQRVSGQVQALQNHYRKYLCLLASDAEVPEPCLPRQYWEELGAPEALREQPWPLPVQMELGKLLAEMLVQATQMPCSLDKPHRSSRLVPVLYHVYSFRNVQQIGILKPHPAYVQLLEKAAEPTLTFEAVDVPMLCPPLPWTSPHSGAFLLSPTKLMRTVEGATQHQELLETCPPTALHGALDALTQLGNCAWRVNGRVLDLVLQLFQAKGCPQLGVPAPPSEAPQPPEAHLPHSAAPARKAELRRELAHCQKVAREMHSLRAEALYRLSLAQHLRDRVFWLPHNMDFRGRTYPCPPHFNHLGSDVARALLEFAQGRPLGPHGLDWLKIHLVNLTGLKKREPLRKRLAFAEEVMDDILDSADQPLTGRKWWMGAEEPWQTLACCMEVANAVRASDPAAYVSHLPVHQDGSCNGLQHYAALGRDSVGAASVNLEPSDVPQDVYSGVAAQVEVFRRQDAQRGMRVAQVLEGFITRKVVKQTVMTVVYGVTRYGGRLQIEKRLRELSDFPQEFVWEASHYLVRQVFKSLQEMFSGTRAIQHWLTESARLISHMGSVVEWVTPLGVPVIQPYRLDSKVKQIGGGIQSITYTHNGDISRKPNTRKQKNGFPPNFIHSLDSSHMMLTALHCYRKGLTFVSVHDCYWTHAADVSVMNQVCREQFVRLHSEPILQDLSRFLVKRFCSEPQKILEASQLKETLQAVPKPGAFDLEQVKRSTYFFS
T1 sequence (P03421 whole entry): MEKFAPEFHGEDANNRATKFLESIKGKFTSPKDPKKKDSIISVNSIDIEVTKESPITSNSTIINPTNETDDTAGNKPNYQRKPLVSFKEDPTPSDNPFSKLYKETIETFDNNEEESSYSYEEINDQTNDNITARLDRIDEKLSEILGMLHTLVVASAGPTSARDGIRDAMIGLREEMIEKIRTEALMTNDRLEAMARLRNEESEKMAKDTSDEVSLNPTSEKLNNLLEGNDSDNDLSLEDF
T1 sequence (P28887 whole entry): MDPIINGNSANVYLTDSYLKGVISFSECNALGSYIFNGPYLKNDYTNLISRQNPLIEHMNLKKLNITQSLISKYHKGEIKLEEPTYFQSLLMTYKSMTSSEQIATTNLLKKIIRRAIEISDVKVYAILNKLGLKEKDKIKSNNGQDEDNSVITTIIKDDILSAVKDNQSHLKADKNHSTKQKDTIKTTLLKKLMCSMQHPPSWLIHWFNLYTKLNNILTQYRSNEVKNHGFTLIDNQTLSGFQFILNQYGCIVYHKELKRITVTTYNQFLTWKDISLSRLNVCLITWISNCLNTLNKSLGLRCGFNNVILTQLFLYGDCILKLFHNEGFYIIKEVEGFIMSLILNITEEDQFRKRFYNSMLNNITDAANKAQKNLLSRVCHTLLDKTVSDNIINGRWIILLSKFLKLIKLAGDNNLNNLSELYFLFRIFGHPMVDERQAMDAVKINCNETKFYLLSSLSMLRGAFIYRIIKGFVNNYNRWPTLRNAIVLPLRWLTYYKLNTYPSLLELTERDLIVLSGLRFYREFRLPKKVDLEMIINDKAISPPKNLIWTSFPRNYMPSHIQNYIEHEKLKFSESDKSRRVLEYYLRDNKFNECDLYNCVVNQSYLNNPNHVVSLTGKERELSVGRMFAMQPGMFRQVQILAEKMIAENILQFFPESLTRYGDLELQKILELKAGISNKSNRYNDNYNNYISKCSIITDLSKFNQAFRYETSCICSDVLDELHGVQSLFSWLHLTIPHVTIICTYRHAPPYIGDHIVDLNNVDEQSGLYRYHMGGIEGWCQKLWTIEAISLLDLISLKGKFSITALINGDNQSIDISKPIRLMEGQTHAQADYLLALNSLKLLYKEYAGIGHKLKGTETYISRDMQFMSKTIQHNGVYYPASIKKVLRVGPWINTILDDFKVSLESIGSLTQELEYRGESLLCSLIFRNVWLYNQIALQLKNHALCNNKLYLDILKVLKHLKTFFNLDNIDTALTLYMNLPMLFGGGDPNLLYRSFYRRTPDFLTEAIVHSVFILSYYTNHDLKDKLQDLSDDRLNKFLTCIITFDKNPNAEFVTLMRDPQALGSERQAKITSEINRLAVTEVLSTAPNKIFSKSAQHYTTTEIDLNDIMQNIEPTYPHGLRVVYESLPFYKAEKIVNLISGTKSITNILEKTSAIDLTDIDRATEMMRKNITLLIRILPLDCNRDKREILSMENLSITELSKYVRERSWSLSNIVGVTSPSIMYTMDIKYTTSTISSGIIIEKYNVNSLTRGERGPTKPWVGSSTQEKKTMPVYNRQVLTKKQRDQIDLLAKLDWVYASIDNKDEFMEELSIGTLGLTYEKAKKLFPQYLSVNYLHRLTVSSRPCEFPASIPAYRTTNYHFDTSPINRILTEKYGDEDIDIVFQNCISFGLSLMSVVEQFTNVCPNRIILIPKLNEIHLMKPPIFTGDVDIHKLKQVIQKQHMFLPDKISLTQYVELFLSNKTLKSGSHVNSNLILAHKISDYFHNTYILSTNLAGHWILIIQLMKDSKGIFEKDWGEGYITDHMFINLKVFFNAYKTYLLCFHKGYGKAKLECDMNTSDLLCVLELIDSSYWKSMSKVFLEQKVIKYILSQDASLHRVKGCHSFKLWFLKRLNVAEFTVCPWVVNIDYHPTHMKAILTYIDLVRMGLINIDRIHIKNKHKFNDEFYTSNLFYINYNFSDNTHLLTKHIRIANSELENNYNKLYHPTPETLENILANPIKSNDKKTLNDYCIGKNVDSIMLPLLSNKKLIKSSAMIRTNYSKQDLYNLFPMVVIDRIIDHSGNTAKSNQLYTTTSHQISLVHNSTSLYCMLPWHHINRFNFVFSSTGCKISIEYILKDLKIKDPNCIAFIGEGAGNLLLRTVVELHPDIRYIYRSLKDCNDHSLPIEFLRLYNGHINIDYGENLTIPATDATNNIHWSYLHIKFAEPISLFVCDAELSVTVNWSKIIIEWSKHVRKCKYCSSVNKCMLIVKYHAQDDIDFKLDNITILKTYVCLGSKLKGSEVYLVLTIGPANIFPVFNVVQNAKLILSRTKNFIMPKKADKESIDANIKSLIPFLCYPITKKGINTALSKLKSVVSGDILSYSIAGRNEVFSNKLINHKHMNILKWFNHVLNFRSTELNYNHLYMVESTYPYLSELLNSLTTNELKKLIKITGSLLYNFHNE

In the case of `Nc1ncnn2c([C@@H]3O[C@](CCl)(COP(=O)(O)OP(=O)(O)OP(=O)(O)O)[C@@H](O)[C@H]3O)ccc12` [—CH2Cl], the IC50 (RSV RNP complexes) is reported as 1.1 µM, the IC50 (DENV2 NS5) is reported as 7.1 µM and the “POLRMT SNI %” value (POLRMT [1]) is reported as 0.11%.
With `N#C[C@]1(COP(=O)(O)OP(=O)(O)OP(=O)(O)O)O[C@@H](c2ccc3c(N)ncnn23)[C@H](O)[C@@H]1O` [—CN] the IC50 (RSV RNP complexes) was 0.044 µM, the IC50 (DENV2 NS5) was 0.83 µM and the “POLRMT SNI %” value (POLRMT [1]) was 0.6%. It also gave an IC50 (POLRMT [2]) greater than 200 µM.
